Experimental data reported in patent US20060160895A1, “Anti-cancer agents” (priority 2004, published 2006).

Columns and labels:
Assay type in all cases: cell-based, human
lung carcinoma (A549) = test: in vitro MTT proliferation assay, A549 cells; details: 48 hrs; for inhibition of cancer cell line A549: 0.3-100 μg/ml, absorbance at 492 nm; for IC50 values for A549: calculated with XLfit
Description: (§1) An in vitro assay was conducted to evaluate the efficacy of LuA, LuB, and LuE in inhibiting proliferation of cancer cells.
(§2) Four human tumor cell lines, i.e., gastric adenocarcinoma (AGS, BGC-823), lung carcinoma (A549), and lung adenocarcinoma (SPC-A-1), were purchased from the Cell Bank of Shanghai Institute of Cell Biology, Chinese Academy of Sciences, and cultured in Iscove's Modified Dulbecco's Medium (IMDM) containing 10% fetal bovine serum (FBS) in an incubator at 37° C. under 5% CO2. Cells of 70˜80% confluence were trypsinized, resuspended in IMDM medium containing 10% FBS at 1×10^5 cells/ml, and seeded in 96-well plates (100 μl in each well). The plates were incubated at 37° C. under 5% CO2 overnight.
(§3) A DMSO solution containing LuA, LuB, or LuE was added to each “treatment” well. Efficacy of LuA, LuB, and LuE at six concentrations, 100, 30, 10, 3, 1, and 0.3 μg/ml, was studied. Wells, to each of which a DMSO solution (containing no LuA, LuB, or LuE) was added, were used as “control;” and wells, to each of which no LuA, LuB, LuE, or DMSO was added, were used as “background.” The plates were then incubated at 37° C. under 5% CO2 for 48 hrs.
(§4) 10 μl of 3-(4,5-dimethyl-thiazol-2-yl)-2,5-diphenyl tetrazolium bromide in phosphate buffered saline (PBS), 5 mg/ml, was added to all wells except the background wells. After incubation for 3-4 hrs, the cells were collected by spinning at 1000 rpm for 15 minutes, followed by removal of the supernatants by vacuum. The cells thus collected in each well, after wash with 150 μl of PBS, were placed in 150 μl of DMSO.
(§5) The plates were then placed on a shaker at 150 rpm for 15 minutes to dissolve the precipitate in each well. Absorbance was measured at 492 nm using a microplate reader.
(§6) Inhibition ratios for cells treated with LuA, LuB, and LuE, respectively, were calculated according to the following equation: [formula]
(§7) A software program, XLfit (ID Business Solutions), was used to calculate the concentrations of LuA, LuB, and LuE required to reach 10, 20, . . . 90% inhibition (i.e., IC10, IC20, . . . IC90) for each tested tumor cell line.

[1] = test system: gastric adenocarcinoma (BGC-823); test: in vitro MTT proliferation assay, BGC-823 cells; details: 48 hrs; for inhibition of cancer cell line BGC-823: 0.3-100 μg/ml, absorbance at 492 nm; for IC50 values for BGC-823: calculated with XLfit
Description: as §1, §2, §3, §4, §5, §6, §7

[2] = test system: lung adenocarcinoma (SPC-A-1); test: in vitro MTT proliferation assay, SPC-A-1 cells; details: 48 hrs, 0.3-100 μg/ml, absorbance at 492 nm
Description: as §1, §2, §3, §4, §5, §6, §7

[3] = test system: gastric adenocarcinoma (AGS); test: in vitro MTT proliferation assay, AGS cells; details: 48 hrs; for inhibition of cancer cell line AGS: 0.3-100 μg/ml, absorbance at 492 nm; for IC50 values for AGS: calculated with XLfit
Description: as §1, §2, §3, §4, §5, §6, §7

SMILES	inhibition of cancer cell line A549 (lung carcinoma (A549))	IC50 values for A549 (lung carcinoma (A549))	inhibition of cancer cell line BGC-823 [1]	IC50 values for BGC-823 [1]	inhibition of cancer cell line SPC-A-1 [2]	inhibition of cancer cell line AGS [3]	IC50 values for AGS [3]
C=C1C(=O)[C@]23C[C@H]1C[C@H](OC(C)=O)[C@H]2[C@]1(C)C[C@H](OC(C)=O)[C@H](OC(C)=O)C(C)(C)[C@H]1[C@@H](OC(C)=O)[C@@H]3O [LuA, Lushanrubescensin A]	effectively inhibited	particularly low	effectively inhibited	particularly low	effectively inhibited	effectively inhibited	particularly low
C=C1C(=O)[C@]23C[C@H]1C[C@@H](O)[C@H]2[C@]1(C)C[C@H](OC(C)=O)[C@H](OC(C)=O)C(C)(C)[C@H]1[C@@H](OC(C)=O)[C@@H]3O [LuE, Lushanrubescensin E]	effectively inhibited	–	effectively inhibited	–	effectively inhibited	effectively inhibited	–
C=C1C(=O)[C@]23C[C@H]1C[C@H](O)[C@H]2[C@]1(C)C[C@H](OC(C)=O)[C@H](OC(C)=O)C(C)(C)[C@H]1[C@@H](OC(C)=O)[C@@H]3O [LuB, Lushanrubescensin B]	effectively inhibited	particularly low	effectively inhibited	particularly low	effectively inhibited	effectively inhibited	particularly low
